Literature values in article doi:10.1101/2025.04.01.646723v2 (bioRxiv, 2025).

System: N. benthamiana leaves
Conditions: DCIP, 100 μM, at least 5 biological replicates, ref [15]

nona-arginine [R9]
cellular internalization (in words): efficiently internalized
